Test results from patent publication US20030181401A1, “Insulin secretion promoter” (KYOWA HAKKO KOGYO CO., LTD., priority 2002, published 2003).
Values joined by “and” are separate entries in the source; they are usually repeats but may differ in a detail not shown here. Equal entries are not always repeated.

What was measured:
Format in all cases: in vivo
[1] = tested on: STZ-induced diabetic rats (Wistar); test: Test Example 9: serum insulin in glucose tolerance test, Type I diabetes mellitus model
Protocol: (§1) Male 7-week-old Wistar rats (Japan SLC, Inc.) were fed CE-2 (Clea Japan, Inc.) for one week, so as to accustom the rats to the environment.
(§2) After 18-hour starvation of the accustomed rats, […] of 50 mM citrate buffer, pH 4.5containing 15 mg of streptozotocin (WAKO Pure Chemical Industries, Inc.; abbreviated as “STZ” hereinafter) was prepared and administered to 25 mg (STZ)/kg body weight from their tail vein. Five days after the STZ administration, the rats were fasted for 18 hours. Blood was taken from puncture in the tail vein to assay blood glucose with a simple-type blood glucose assay apparatus Medisafe Reader GR-101 (Terumo, Co., Ltd.), to select 5 rats (Nos. 1, 3, 4, 5, 8) at mild state of diabetes mellitus with a blood glucose level of 200 mg/dl or less.
An aqueous 2% solution of 2′-fucosyllactose was prepared and administered to the rat No. 1 from the tail vein to 50 mg/kg body weight on a 2′-FL dose basis. 0.9% physiological saline was administered to rats Nos. 3, 4, 5 and 8. […] Zero minute and 30, 60, 120, and 240 minutes after glucose loading, blood was taken from a tail vein, to assay blood glucose with Medisafe Reader GR-101 and collect the serum.
12 days after the STZ dosing, the rats were fasted for 18 hours. […] Zero minute and 30, 60, 120, and 240 minutes after glucose loading, blood was taken from a tail vein, to assay blood glucose with Medisafe Reader GR-101 and collect the serum.
Insulin in the serum was assayed by enzyme immunoassay using Morinaga ultra-sensitive rat insulin assay kit (Morinaga Biochemical Research Institute, Co., Ltd.) in the same manner as in Test Example 8. Additionally, a standard curve was prepared by diluting […] of the standard insulin (rat) attached to the kit with 100 μl of saline to use the resulting 25.6 ng/ml insulin solution as the standard solution, diluting the standard solution appropriately with the diluent attached to the kit for the same reaction as for the serum, and plotting the relation between the concentration and the absorbance at the principal wave length of 450 nm and at the sub wave length of 655 nm. […]

db/db mice = test: Test Example 4: serum insulin in glucose tolerance test after 7-day oral dosing of saccharides
Protocol: Groups of male 9-week-old db/db mice (Clea Japan, Inc.) each consisting of 6 mice were fed CE-2 (Clea Japan, Inc.) for one week, so as to accustom the animals to the environment.
After acclimation, individual aqueous 10% solutions of 3′-sialyllactose (abbreviated as “3′-SL” hereinafter), 6′-sialylactose (abbreviated as “6′-SL”) and 2′-FL were orally administered to the mice at 200 mg (saccharide)/kg body weight in the morning and at 300 mg (saccharide)/kg body weight in the evening. The both volume of saline was administered to the control group. The individual aqueous saccharide solutions and saline were both dosed daily to the mice for 7 days. During the dosing period, CE-2 was given together with drinking water ad libitum.
After 18-hour starvation from the final dosing on day 7, an aqueous 40% glucose solution was orally administered to 2 g (glucose)/kg body weight to the mice, to perform glucose tolerance test. Zero minute and 30 minutes after glucose loading, blood was taken from a tail vein. […] Blood was centrifuged (4° C., 10000 rpm, 10 minutes), to obtain serum.
Insulin in the serum recovered was assayed by enzyme immunoassay using Lebis Insulin kit (for rats-T) (Shibayagi, Co., Ltd.) in the same manner as in the Test Example 1.

ICR mice = test: Test Example 8: blood glucose in glucose tolerance test after single oral 2′-FL dose
Protocol: Groups of male 8-week-old ICR mice (Japan SLC, Inc.) each consisting of 6 mice were fed CE-2 (Clea Japan, Inc.) for one week, so as to accustom the animals to the environment.
Then, the mice accustomed were fasted for 18 hours. An aqueous 2% solution of 2′-FL was orally administered to the mice to 100 mg (2′-FL)/kg body weight, while 0.9% saline was administered orally to the control group. Two hours after the 2′-FL dosing, an aqueous 40% glucose solution was orally administered to 2 g (glucose)/kg body weight to the mice, for glucose tolerance test. […] Blood glucose was assayed with a simple-type blood glucose assay apparatus Medisafe Reader GR-101 (Terumo, Co., Ltd.), while the serum was collected.

[2] = tested on: STZ-induced diabetic rats (Wistar); test: Test Example 9: blood glucose in glucose tolerance test, Type I diabetes mellitus model
Protocol: as §1, §2
An aqueous 2% solution of 2′-fucosyllactose was prepared and administered to the rat No. 1 from the tail vein to 50 mg/kg body weight on a 2′-FL dose basis. 0.9% physiological saline was administered to rats Nos. 3, 4, 5 and 8. Two hours after 2′-FL dosing, an aqueous 40% glucose solution was orally administered to 1 g/kg body weight to the rats for glucose tolerance test. Zero minute and 30, 60, 120, and 240 minutes after glucose loading, blood was taken from a tail vein, to assay blood glucose with Medisafe Reader GR-101 and collect the serum.
12 days after the STZ dosing, the rats were fasted for 18 hours. An aqueous 2% solution of 2′-FL at 50 mg (2′-FL)/kg body weight was administered to rats Nos. 3, 4, 5 and 8 on a 2′-FL dose basis through their tail veins. To the rat No. 1 was administered 0.9% physiological saline. Two hours after 2′-FL dosing, an aqueous 40% glucose solution was orally administered to 1 g (glucose)/kg body weight to the rats, for glucose tolerance test. Zero minute and 30, 60, 120, and 240 minutes after glucose loading, blood was taken from a tail vein, to assay blood glucose with Medisafe Reader GR-101 and collect the serum.

[3] = STZ-induced diabetic rats, glucose loading 2 hours after intravenous dosing

2′-fucosyllactose [2′-FL]
serum insulin concentration via glucose loading (in words) [1, 3]: increased | Serum insulin concentration, 0 minute ([1]; individual STZ rats Nos. 1, 3, 4, 5, 8, 50 mg/kg intravenous two hours before glucose 1 g/kg oral, 0 minute after glucose loading, 50 mg/kg): 125.8 pg/mL and 697.0 pg/mL and 197.4 pg/mL and 180.4 pg/mL and 312.5 pg/mL | Serum insulin concentration, 30 minutes ([1]; individual STZ rats Nos. 1, 3, 4, 5, 8, 50 mg/kg intravenous two hours before glucose 1 g/kg oral, 30 minutes after glucose loading, 50 mg/kg): 331.1 pg/mL and 586.6 pg/mL and 915.1 pg/mL and 475.5 pg/mL and 148.4 pg/mL | serum insulin concentration during glucose loading compared with the control group (in words) (db/db mice; continuous daily oral dosing): increased | Serum insulin concentration after glucose loading, 30 minutes (db/db mice; oral 200 + 300 mg/kg daily, 7 days, glucose 2 g/kg oral, 30 minutes, mean ± SD): 8.3 ± 3.9 ng/mL | Serum insulin concentration after glucose loading, 120 minutes (db/db mice; oral 200 + 300 mg/kg daily, 7 days, glucose 2 g/kg oral, 120 minutes, mean ± SD): 26.1 ± 12.9 ng/mL | Serum insulin concentration after glucose loading, Zero minute (db/db mice; oral 200 + 300 mg/kg daily, 7 days, glucose 2 g/kg oral, zero minute, mean ± SD): 6.7 ± 3.3 ng/mL | Blood glucose level after glucose loading, 0 minute (ICR mice; ICR mice fasted 18 hours, 100 mg/kg single oral dose two hours before glucose 2 g/kg oral, 0 minute, mean ± SD): 109 ± 4.4 mg/dL | Blood glucose level after glucose loading, 60 minutes (ICR mice; ICR mice fasted 18 hours, 100 mg/kg single oral dose two hours before glucose 2 g/kg oral, 60 minutes, mean ± SD): 219 ± 29 mg/dL | Blood glucose level after glucose loading, 120 minutes (ICR mice; ICR mice fasted 18 hours, 100 mg/kg single oral dose two hours before glucose 2 g/kg oral, 120 minutes, mean ± SD): 147 ± 14.2 mg/dL | Blood glucose level after glucose loading, −120 minutes (ICR mice; ICR mice fasted 18 hours, 100 mg/kg single oral dose two hours before glucose 2 g/kg oral, −120 minutes, mean ± SD): 131 ± 23.6 mg/dL | elevation of blood glucose level (in words) (ICR mice; ICR mice, single oral dosing 120 minutes before glucose dosing): suppressed | increase of blood glucose level (in words) [2, 3]: suppressed | Blood glucose level after glucose loading, 0 minute ([2]; individual STZ rats Nos. 1, 3, 4, 5, 8, 50 mg/kg intravenous two hours before glucose 1 g/kg oral, 0 minute, 50 mg/kg): 135 mg/dL and 186 mg/dL and 97 mg/dL and 134 mg/dL and 138 mg/dL | Blood glucose level after glucose loading, 30 minutes ([2]; individual STZ rats Nos. 1, 3, 4, 5, 8, 50 mg/kg intravenous two hours before glucose 1 g/kg oral, 30 minutes, 50 mg/kg): 167 mg/dL and 273 mg/dL and 237 mg/dL and 162 mg/dL and 152 mg/dL | Blood glucose level after glucose loading, 60 minutes ([2]; individual STZ rats Nos. 1, 3, 4, 5, 8, 50 mg/kg intravenous two hours before glucose 1 g/kg oral, 60 minutes, 50 mg/kg): 172 mg/dL and 355 mg/dL and 253 mg/dL and 154 mg/dL and 158 mg/dL | Blood glucose level after glucose loading, 120 minutes ([2]; individual STZ rats Nos. 1, 3, 4, 5, 8, 50 mg/kg intravenous two hours before glucose 1 g/kg oral, 120 minutes, 50 mg/kg): 181 mg/dL and 342 mg/dL and 224 mg/dL and 161 mg/dL and 136 mg/dL | Blood glucose level after glucose loading, 240 minutes ([2]; individual STZ rats Nos. 1, 3, 4, 5, 8, 50 mg/kg intravenous two hours before glucose 1 g/kg oral, 240 minutes, 50 mg/kg): 146 mg/dl and 328 mg/dl and 139 mg/dl (2×) and 50 mg/dl | Blood glucose level after glucose loading, −120 minutes ([2]; individual STZ rats Nos. 1, 3, 4, 5, 8, 50 mg/kg intravenous two hours before glucose 1 g/kg oral, −120 minutes, 50 mg/kg): 108 mg/dL and 197 mg/dL and 122 mg/dL and 121 mg/dL and 117 mg/dL
